Test results reported in ChEMBL document CHEMBL2417517, “Isolation, structures, and biological activities of triterpenoids from a Penares sp. marine sponge” (J Nat Prod, 2013).

System: HL-60
Assay: Cytotoxicity against human HL60 cells after 46 hrs by MTS assay
Assay type: functional, cell-based
Conditions: HL-60, 46 h

## CC(C)=CCC[C@@H](C)[C@H]1CC[C@]23C(=O)O[C@]4(CC[C@]12C)C3=CC[C@H]1C(C)(C)[C@@H](O)CC[C@@]14C
  IC50: 9.7 µM
